According to US11053213B2, “Pharmaceutical compounds” (ALMAC DISCOVERY LIMITED, priority 2016, dated 2021):

These molecules were tested against USP19 (Homo sapiens (Human), UniProt O94966) (assay: USP19 activity assay (fluorescence polarisation, Ubiquitin-Lys-TAMRA substrate)). Settings: full-length USP19 2.5 nM, 30 min pre-incubation, Ub substrate 500 nM; average of at least two duplicate experiments.
Format: biochemical

USP19, sequence (O94966 whole entry): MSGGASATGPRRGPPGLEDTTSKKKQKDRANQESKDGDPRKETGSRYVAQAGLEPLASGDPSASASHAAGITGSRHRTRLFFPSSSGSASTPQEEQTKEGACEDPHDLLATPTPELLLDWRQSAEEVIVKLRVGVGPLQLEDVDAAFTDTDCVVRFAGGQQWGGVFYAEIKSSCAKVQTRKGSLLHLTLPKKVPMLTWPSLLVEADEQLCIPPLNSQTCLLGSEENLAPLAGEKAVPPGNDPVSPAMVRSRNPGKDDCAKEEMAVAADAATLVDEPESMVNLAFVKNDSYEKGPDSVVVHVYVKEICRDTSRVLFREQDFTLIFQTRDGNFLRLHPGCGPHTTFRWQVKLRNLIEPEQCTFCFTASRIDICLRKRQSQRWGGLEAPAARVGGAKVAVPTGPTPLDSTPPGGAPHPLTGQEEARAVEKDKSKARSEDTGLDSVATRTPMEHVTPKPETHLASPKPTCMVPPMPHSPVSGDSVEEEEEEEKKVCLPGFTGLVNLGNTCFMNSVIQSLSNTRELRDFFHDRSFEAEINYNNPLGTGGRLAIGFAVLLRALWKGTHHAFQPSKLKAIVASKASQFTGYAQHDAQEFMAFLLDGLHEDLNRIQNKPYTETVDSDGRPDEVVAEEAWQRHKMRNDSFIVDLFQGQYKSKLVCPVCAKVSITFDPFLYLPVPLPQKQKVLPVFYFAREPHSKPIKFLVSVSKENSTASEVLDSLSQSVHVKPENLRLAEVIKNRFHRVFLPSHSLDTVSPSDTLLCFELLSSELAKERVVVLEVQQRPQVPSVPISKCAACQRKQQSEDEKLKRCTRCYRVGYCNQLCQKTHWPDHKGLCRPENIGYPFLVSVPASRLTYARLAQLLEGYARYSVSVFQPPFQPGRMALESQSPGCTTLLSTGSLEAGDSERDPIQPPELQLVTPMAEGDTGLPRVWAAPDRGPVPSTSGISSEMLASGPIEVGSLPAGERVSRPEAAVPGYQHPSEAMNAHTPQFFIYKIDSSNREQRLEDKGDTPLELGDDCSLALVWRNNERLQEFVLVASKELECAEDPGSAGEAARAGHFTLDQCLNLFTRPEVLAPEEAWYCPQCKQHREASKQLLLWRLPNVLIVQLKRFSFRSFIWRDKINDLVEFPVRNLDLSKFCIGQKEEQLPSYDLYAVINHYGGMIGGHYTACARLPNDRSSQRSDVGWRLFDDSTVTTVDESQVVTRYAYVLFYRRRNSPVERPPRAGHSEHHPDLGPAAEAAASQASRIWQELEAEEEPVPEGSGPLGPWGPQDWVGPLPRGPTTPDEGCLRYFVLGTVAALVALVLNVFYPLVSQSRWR

Row | SMILES | IC50 [µM]
1 | C=C(C)c1cc(=O)n(CC2(O)CCN(C(=O)C[C@@H](C)c3ccccc3)CC2)cn1 [Example 29, (R)-3-((4-Hydroxy-1-(3-phenylbutanoyl)piperidin-4-yl)methyl)-6-(prop-1-en-2-yl)pyrimidin-4(3H)-one] | 50 to 250
2 | CCN(CC)C(=O)c1cn(CC2(O)CCN(C(=O)C[C@@H](C)c3ccccc3)CC2)c(=O)cc1-c1ccccc1 [Example 75, (R)—N,N-Diethyl-1-((4-hydroxy-1-(3-phenylbutanoyl)piperidin-4-yl)methyl)-6-oxo-4-phenyl-1,6-dihydropyridine-3-carboxamide] | 0.5 to 5
3 | CCC1(C(=O)N2CCC(O)(Cn3cnc(-c4ccccc4F)cc3=O)CC2)CCCCC1 [Example 24, 3-((1-(1-Ethylcyclohexane-1-carbonyl)-4-hydroxypiperidin-4-yl)methyl)-6-(2-fluorophenyl)pyrimidin-4(3H)-one] | 5 to 50
4 | C[C@H](CC1CCCCC1)C(=O)N1CC[C@@](O)(Cn2cc(C(=O)N3CCOCC3)c(-c3ccccc3)cc2=O)C2(CCCC2)C1 [Example 239, 1-(((S)-7-((R)-3-Cyclohexyl-2-methylpropanoyl)-10-hydroxy-7-azaspiro[4.5]decan-10-yl)methyl)-5-(morpholine-4-carbonyl)-4-phenylpyridin-2(1H)-one] | < 0.5
5 | C[C@H](CC(=O)N1CCC(O)(Cn2cc(-c3ccccc3C#N)c(-c3ccccc3)cc2=O)CC1)c1ccccc1 [Example 106, (R)-2-(1-((4-Hydroxy-1-(3-phenylbutanoyl)piperidin-4-yl)methyl)-6-oxo-4-phenyl-1,6-dihydropyridin-3-yl)benzonitrile] | 5 to 50
6 | C[C@H](CC(=O)N1CCC(O)(Cn2cc(C(=O)N3CCC[C@@H]3C)c(-c3ccccc3)cc2=O)CC1)c1ccccc1 [Example 116, 1-((4-Hydroxy-1-((R)-3-phenylbutanoyl)piperidin-4-yl)methyl)-5-((S)-2-methylpyrrolidine-1-carbonyl)-4-phenylpyridin-2(1H)-one] | 0.5 to 5
7 | CN(C)C(=O)c1cn(CC2(O)CCN(C(=O)C[C@H](c3ccccc3)C(F)F)CC23CCCC3)c(=O)cc1-c1ccccc1 (stereo partly drawn) [Example 181, 1-((7-((R)-4,4-Difluoro-3-phenylbutanoyl)-10-hydroxy-7-azaspiro[4.5]decan-10-yl)methyl)-N,N-dimethyl-6-oxo-4-phenyl-1,6-dihydropyridine-3-carboxamide] | 0.5 to 5
8 | C[C@H](CC(F)(F)F)C(=O)N1CC[C@@](O)(Cn2cc(C(=O)N3CCN(C)CC3)c(-c3ccccc3)cc2=O)C2(CCCC2)C1 [Example 251, 1-(((S)-10-Hydroxy-7-((R)-4,4,4-trifluoro-2-methylbutanoyl)-7-azaspiro[4.5]decan-10-yl)methyl)-5-(4-methylpiperazine-1-carbonyl)-4-phenylpyridin-2(1H)-one] | < 0.5
9 | CC1(C)CN(C(=O)CCC2CCCCC2)CCC1(O)Cn1cnc(-c2ccccc2F)cc1=O (racemic) [Example 78, (R,S)-3-((1-(3-Cyclohexylpropanoyl)-4-hydroxy-3,3-dimethylpiperidin-4-yl)methyl)-6-(2-fluorophenyl)pyrimidin-4(3H)-one] | 0.5 to 5
10 | CN(C)C(=O)c1cn(C[C@]2(O)CCN(C(=O)C(CC(F)(F)F)CC(F)(F)F)CC23CCCC3)c(=O)cc1-c1ccccc1 [Example 218, (S)-1-((10-Hydroxy-7-(4,4,4-trifluoro-2-(2,2,2-trifluoroethyl)butanoyl)-7-azaspiro[4.5]decan-10-yl)methyl)-N,N-dimethyl-6-oxo-4-phenyl-1,6-dihydropyridine-3-carboxamide] | 0.5 to 5
11 | C[C@H](CC(=O)N1CCC(O)(Cn2ccc(-c3ccccc3)cc2=O)CC1)c1ccccc1 [Example 27, (R)-1-((4-Hydroxy-1-(3-phenylbutanoyl)piperidin-4-yl)methyl)-4-phenylpyridin-2(1H)-one] | 50 to 250
12 | C[C@H](CC(=O)N1CCC(O)(Cn2cc(C(=O)N3CCC4(CC3)OCCO4)c(-c3ccccc3)cc2=O)CC1)c1ccccc1 [Example 64, (R)-1-((4-Hydroxy-1-(3-phenylbutanoyl)piperidin-4-yl)methyl)-4-phenyl-5-(1,4-dioxa-8-azaspiro[4.5]decane-8-carbonyl)pyridin-2(1H)-one] | 5 to 50
13 | CN(C)C(=O)c1cn(CC2(O)CCN(C(=O)C34CCC(CC3)C4)CC23CCCC3)c(=O)cc1-c1ccccc1 (stereo not shown) [Example 179, 1-((7-(Bicyclo[2.2.1]heptane-1-carbonyl)-10-hydroxy-7-azaspiro[4.5]decan-10-yl)methyl)-N,N-dimethyl-6-oxo-4-phenyl-1,6-dihydropyridine-3-carboxamide] | 50 to 250
14 | C[C@H](CC(=O)N1CCC(O)(Cn2cc(C(=O)N3CCCC3)c(-c3ccccc3)cc2=O)CC1)c1ccccc1 [Example 63, (R)-1-((4-Hydroxy-1-(3-phenylbutanoyl)piperidin-4-yl)methyl)-4-phenyl-5-(pyrrolidine-1-carbonyl)pyridin-2(1H)-one] | 0.5 to 5
15 | CC(C)N(C)C(=O)c1cn(CC2(O)CCN(C(=O)C3(C)CCc4ccccc4C3)CC2)c(=O)cc1-c1ccccc1F (racemic) [Example 14, (R,S)-4-(2-Fluorophenyl)-1-((4-hydroxy-1-(2-methyl-1,2,3,4-tetrahydronaphthalene-2-carbonyl)piperidin-4-yl)methyl)-N-isopropyl-N-methyl-6-oxo-1,6-dihydropyridine-3-carboxamide] | 0.5 to 5
16 | C[C@H](CC1CCCCC1)C(=O)N1CCC(O)(Cn2cnc(-c3ccccc3CN)cc2=O)C(C)(C)C1 (stereo partly drawn) [Example 141, 6-(2-(Aminomethyl)phenyl)-3-((1-((R)-3-cyclohexyl-2-methylpropanoyl)-4-hydroxy-3,3-dimethylpiperidin-4-yl)methyl)pyrimidin-4(3H)-one] | < 0.5
17 | C[C@H](CC(=O)N1CCC(O)(Cn2cc(C(=O)N(C)Cc3ccccc3)c(-c3ccccc3)cc2=O)CC1)c1ccccc1 [Example 105, (R)—N-Benzyl-1-((4-hydroxy-1-(3-phenylbutanoyl)piperidin-4-yl)methyl)-N-methyl-6-oxo-4-phenyl-1,6-dihydropyridine-3-carboxamide] | 5 to 50
18 | C[C@H](CC1CCCCC1)C(=O)N1CCC(O)(Cn2cc(-c3cccc(CN)c3)c(-c3ccccc3F)cc2=O)CC1 [Example 52, (R)-5-(3-(Aminomethyl)phenyl)-1-((1-(3-cyclohexyl-2-methylpropanoyl)-4-hydroxypiperidin-4-yl)methyl)-4-(2-fluorophenyl)pyridin-2(1H)-one] | 0.5 to 5
19 | C[C@H](CC1CCCCC1)C(=O)N1CC[C@@](O)(Cn2cc(C(=O)N3CCC(O)CC3)c(-c3ccccc3)cc2=O)C(C)(C)C1 [Example 228, 1-(((S)-1-((R)-3-Cyclohexyl-2-methylpropanoyl)-4-hydroxy-3,3-dimethylpiperidin-4-yl)methyl)-5-(4-hydroxypiperidine-1-carbonyl)-4-phenylpyridin-2(1H)-one] | < 0.5
20 | C[C@H](CC1CCCCC1)C(=O)N1CCC(O)(Cn2cnc(-c3cncnc3)cc2=O)C(C)(C)C1 (stereo partly drawn) [Example 130, 1-((1-((R)-3-Cyclohexyl-2-methylpropanoyl)-4-hydroxy-3,3-dimethylpiperidin-4-yl)methyl)-[4,5′-bipyrimidin]-6(1H)-one] | 0.5 to 5
21 | C[C@H](CC(=O)N1CCC(O)(Cn2cc(-c3ccccn3)c(-c3ccccc3)cc2=O)CC1)c1ccccc1 [Example 91, (R)-1′-((4-Hydroxy-1-(3-phenylbutanoyl)piperidin-4-yl)methyl)-4′-phenyl-[2,3′-bipyridin]-6′(1′H)-one] | 0.5 to 5
22 | CN(C)C(=O)c1cn(CC2(O)CCN(C(=O)C3CC34CC4)CC23CCCC3)c(=O)cc1-c1ccccc1 (stereo not shown) [Example 195, 1-((10-Hydroxy-7-(spiro[2.2]pentane-1-carbonyl)-7-azaspiro[4.5]decan-10-yl)methyl)-N,N-dimethyl-6-oxo-4-phenyl-1,6-dihydropyridine-3-carboxamide] | 5 to 50
23 | C[C@H](CC1CCCCC1)C(=O)N1CC[C@](O)(Cn2cc(C(=O)N(C)C)c(-c3ccccc3)cc2=O)C2(CCCC2)C1 [Example 209, 1-(((R)-7-((R)-3-Cyclohexyl-2-methylpropanoyl)-10-hydroxy-7-azaspiro[4.5]decan-10-yl)methyl)-N,N-dimethyl-6-oxo-4-phenyl-1,6-dihydropyridine-3-carboxamide] | 5 to 50
24 | CN(C)C(=O)c1cn(CC2(O)CCN(C(=O)C3CCC(C(F)(F)F)C3)CC23CCCC3)c(=O)cc1-c1ccccc1 (stereo not shown) [Example 196, 1-((10-Hydroxy-7-(3-(trifluoromethyl)cyclopentane-1-carbonyl)-7-azaspiro[4.5]decan-10-yl)methyl)-N,N-dimethyl-6-oxo-4-phenyl-1,6-dihydropyridine-3-carboxamide] | 0.5 to 5
25 | C[C@H](CC(F)(F)F)C(=O)N1CC[C@@](O)(Cn2cc(C(=O)N3CCNCC3)c(-c3ccccc3)cc2=O)C2(CCCC2)C1 [Example 217, 1-(((S)-10-Hydroxy-7-((R)-4,4,4-trifluoro-2-methylbutanoyl)-7-azaspiro[4.5]decan-10-yl)methyl)-4-phenyl-5-(piperazine-1-carbonyl)pyridin-2(1H)-one] | < 0.5
26 | C[C@H](CC1CCCCC1)C(=O)N1CCC(O)(Cn2cc(-c3ccccn3)c(-c3ccccc3F)cc2=O)C(C)(C)C1 (stereo partly drawn) [Example 154, 1′-((1-((R)-3-Cyclohexyl-2-methylpropanoyl)-4-hydroxy-3,3-dimethylpiperidin-4-yl)methyl)-4′-(2-fluorophenyl)-[2,3′-bipyridin]-6′(1′H)-one] | 5 to 50
27 | CC(C)CNc1cc(=O)n(CC2(O)CCN(C(=O)C[C@@H](C)c3ccccc3)CC2)cn1 [Example 35, (R)-3-((4-Hydroxy-1-(3-phenylbutanoyl)piperidin-4-yl)methyl)-6-(isobutylamino)pyrimidin-4(3H)-one] | 50 to 250
28 | CN(C)C(=O)c1cn(C[C@]2(O)CCN(C(=O)C(CC(F)(F)F)CC(F)(F)F)CC2(C)C)c(=O)cc1-c1ccccc1 [Example 207, (S)-1-((4-Hydroxy-3,3-dimethyl-1-(4,4,4-trifluoro-2-(2,2,2-trifluoroethyl)butanoyl)piperidin-4-yl)methyl)-N,N-dimethyl-6-oxo-4-phenyl-1,6-dihydropyridine-3-carboxamide] | 5 to 50
